ChEMBL document CHEMBL1141980, “Novel use of chemical shift in NMR as molecular descriptor: a first report on modeling carbonic anhydrase inhibitory activity and related parameters” (Bioorg Med Chem Lett, 2005)

Experiment: Diuretic activity was determined
Type: ADME, tissue-based, Urine
Design: reference not given here

Row | Structure (SMILES) | pC
1 | CC(=O)c1ccc(S(N)(=O)=O)cc1 | 0.398
2 | Cc1cccc(S(N)(=O)=O)c1 | 0.176
3 | CNc1ccc(S(N)(=O)=O)cc1 | -0.036
4 | COc1ccc(S(N)(=O)=O)cc1 | 0.188
5 | Cc1ccccc1S(N)(=O)=O | 0.301
6 | N#Cc1ccc(S(N)(=O)=O)cc1 | 1
7 | NS(=O)(=O)c1ccc(Br)cc1 | 0.267
8 | NS(=O)(=O)c1ccc([N+](=O)[O-])c(C(F)(F)F)c1 | 0.58
9 | NS(=O)(=O)c1ccc([N+](=O)[O-])cc1 | 0.824
10 | NS(=O)(=O)c1ccccc1[N+](=O)[O-] | 0.301
11 | NS(=O)(=O)c1ccc(Cl)c(Cl)c1 | 0.243
12 | NS(=O)(=O)c1cccc([N+](=O)[O-])c1 | 0.678
13 | NS(=O)(=O)c1ccccc1Cl | 0.301
14 | NS(=O)(=O)c1cccc(Cl)c1 | 0.292
15 | NS(=O)(=O)c1ccc(Cl)c([N+](=O)[O-])c1 | 0.322
16 | NS(=O)(=O)c1ccccc1 [BENZENESULFONAMIDE] | 0.13
17 | NS(=O)(=O)c1ccc(Cl)cc1 [P-CHLOROBENZENESULFONAMIDE] | 0.286
18 | Cc1ccc(S(N)(=O)=O)cc1 [P-TOLUENESULFONAMIDE] | 0.182
19 | Nc1ccc(S(N)(=O)=O)cc1 [SULFANILAMIDE] | -0.301
